Assays:
Assay type in all cases: cell-based
[1] = tested on: NLRP3-dependent release of IL-1β; assay: LPS/ATP-induced IL-1β release from differentiated THP1 cells overexpressing human THIK-1; settings: 1 μM, THIK-1 overexpressing THP1 cells
Protocol: (§1) THP1 cells, obtained from ATCC, are monocytes isolated from peripheral blood of a leukaemia patient. THP1 cells were grown in RPMI 1640 supplemented with 10% fetal bovine serum (FBS, Hyclone), 1% PenStrep (Invitrogen), and 1% GlutaMax (Invitrogen), and 0.05 mM of 2-mercaptoethanol. To overexpress human THIK-1, THP1 cells were differentiated with 100 ng/ml PMA for 24 h prior to transfection with THIK-1 mRNA synthesized as described in the supplementary material. Cell suspensions (2.5 × 10^6 cells in […]) in the presence of 200 μg/ml mRNA were electroporated with the MaxCyte (STX instrument) in an OC-25 MaxCyte Electroporation cassette using manufacturer settings for THP1 cells. Cell suspensions were transferred to a 6-well plate and allowed to recover for 20 min at 37 °C. Cells were seeded into 384-well plates (10,000 cells/well) for thallium flux assays or 96-well plates (50,000 cells/well) for inflammasome assays the following day. Overexpressing and mock-transfected cells were primed with 100 ng/ml of LPS for 3.5 h prior to addition of compounds 30 min before stimulation with 5 mM ATP. Supernatants were collected 2 h after addition of ATP and stored at −20 °C until the detection of IL-1β.
IL-1β from culture supernatants was measured with DuoSet ELISA kit (R&D Systems) following the manufacturer instructions.

[2] = target: T1, THIK-1 (Homo sapiens, UniProt Q9HB14); assay: FLIPR thallium influx assay, HEK-hTHIK-1 cells; settings: HEK-hTHIK-1, normalised to TPA controls; read-out: IC50, inhibition of THIK-1 constitutive activity (thallium influx)
T1 construct: expressed in transfected cells
T1 sequence (Q9HB14 1-408): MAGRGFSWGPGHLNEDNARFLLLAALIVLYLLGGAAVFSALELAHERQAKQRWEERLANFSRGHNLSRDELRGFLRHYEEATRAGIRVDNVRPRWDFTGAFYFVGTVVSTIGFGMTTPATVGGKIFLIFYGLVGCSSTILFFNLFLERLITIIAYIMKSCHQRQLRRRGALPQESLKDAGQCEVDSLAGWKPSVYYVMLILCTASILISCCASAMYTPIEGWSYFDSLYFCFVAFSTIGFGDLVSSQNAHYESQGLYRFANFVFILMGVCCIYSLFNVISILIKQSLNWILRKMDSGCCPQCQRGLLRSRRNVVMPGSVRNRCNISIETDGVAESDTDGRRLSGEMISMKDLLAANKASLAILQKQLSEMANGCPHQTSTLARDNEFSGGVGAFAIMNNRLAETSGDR
Protocol: HEK-293 cells were transfected with human THIK-1, TREK-1, TWIK-2, or mouse THIK-1 cDNA cloned into pcDNA3.1, using either Fugene HD transfection reagent (Promega) or electroporation (MaxCyte STX instrument). Cells stably expressing the relevant genes were selected based on resistance to 500 μg/ml geneticin (Gibco). For human THIK-1 and TWIK-2 expressing cells, monoclonal lines were isolated by limited dilution cloning; mouse THIK-1 and human TREK-1 expressing cells were maintained as polyclonal pools. The HEK-293 pools and monoclones stably expressing the relevant genes were maintained in DMEM (Life Technologies), supplemented with 10% FCIII (HyClone, Fetal clone III) and 500 μg/ml geneticin. A CHO-Kv2.1 cell line was purchased from Millipore (accession NM_004975) and maintained in F12 (Life Technologies), supplemented with 10% FCSIII (Thermo Scientific) and 500 μg/ml geneticin (Life Technologies). For thallium flux assays, banks of frozen cell aliquots were prepared the day prior to assay, cells were thawed into media and seeded into PDL coated 384-well plates (Corning) at 25,000 (human/mouse THIK-1, TREK-1) or 30,000 (TWIK-2) cells/well (25 μl/well). CHO-Kv2.1 cells were seeded into non-PDL coated plates (Corning) at 5000 cells/well. Plated cells were incubated overnight at 37 °C, 5% CO2 in a humidified atmosphere. For Q-Patch assays, cells were cultured for 7 days prior to assay, dissociated, and diluted to 1–2.5 million/ml in EX-CELL ACF serum free media containing HEPES (25 mM; Life Technologies), penicillin/streptomycin (100 U/ml, 100 μg/ml; Life Technologies) and a trypsin inhibitor (0.04 mg/ml).
A fluorescence-based thallium influx assay (Molecular Devices potassium assay kit) was used to monitor channel activity. In brief, component A was reconstituted in 17 ml of chloride-free assay buffer (130 mM sodium D-gluconate, 5 mM potassium D-gluconate, 2 mM calcium D-gluconate, 1 mM magnesium D-gluconate, 5 mM NaHCO3, 20 mM HEPES; pH adjusted to 7.4 with NaOH and filtered (0.45 μm filter)) and component C reconstituted in 30 μl of DMSO. Components A and C were combined, and probenecid was added (Life Technologies; final assay concentration (FAC) 4.75 mM for HEK cell lines and 2.47 mM for CHO-Kv2.1) to provide the final dye solution. Media was removed from the cell plates and replaced with dye (20 μl/well) and the plates were incubated at room temperature in the dark for 60 min. On the day of the assay, a diluted compound plate (3x FAC in 1.5% DMSO) was created. Control wells contained either DMSO vehicle (1.5%, 3x FAC) or tetrapentylammonium chloride (TPA; Sigma, 258962; 1.5 mM in 1.5% DMSO, 3x FAC). A 3x thallium stimulation plate was also prepared, to provide a FAC of either 1 mM (human THIK-1) or 3 mM (mouse THIK-1, TREK-1, TWIK-2) thallium sulphate (in assay buffer). For Kv2.1, the FAC of thallium sulphate was 2.6 mM and this was prepared in assay buffer containing potassium sulphate (Sigma P9458; FAC 23.3 mM). Following 60 min of dye loading, 10 μl from the 3x FAC compound plate was added into the cell plate, which was then incubated for 15 min at room temperature in the dark. Using a fluorescent imaging plate reader (FLIPR) tetra plate reader, 15 μl thallium stimulus solution was added to the cell plate and the fluorescence signal recorded every second for 1 min (excitation: 470–495 nm, emission: 515–575 nm).

[3] = target: T1, THIK-1; assay: Thallium influx in human THIK-1 overexpressing differentiated THP1 cells; settings: THIK-1 mRNA-transfected differentiated THP1 cells; read-out: IC50, block of thallium influx
Protocol: as §1, with “Overexpressing and mock-transfected cells were primed with 100 ng/ml of LPS for 3.5 h prior to addition of compounds 30 min before stimulation with 5 mM ATP. Supernatants were collected 2 h after addition of ATP and stored at −20 °C until the detection of IL-1β.” left out
A fluorescence-based thallium influx assay (Molecular Devices potassium assay kit) was used to monitor channel activity. […] Using a fluorescent imaging plate reader (FLIPR) tetra plate reader, 15 μl thallium stimulus solution was added to the cell plate and the fluorescence signal recorded every second for 1 min (excitation: 470–495 nm, emission: 515–575 nm).

Row | SMILES | effect on ATP-stimulated IL-1β release [1] | IC50 [2] [µM] | IC50 [3] [µM]
1 | CC(C)(O)c1coc(S(=O)(=O)NC(=O)Nc2c3c(cc4c2CCC4)CCC3)c1 [MCC950, reference compound] | completely blocked | – | –
2 | CCCCC[N+](CCCCC)(CCCCC)CCCCC [TPA, tetrapentylammonium chloride, reference compound] | – | 4.7 | 6.8

Source: publication PMC9841576, “Characterisation of C101248: A novel selective THIK-1 channel inhibitor for the modulation of microglial NLRP3-inflammasome” (Neuropharmacology, 2023)
